Results taken from ChEMBL document CHEMBL2074097, “Urate transport via human PAH transporter hOAT1 and its gene structure” (Kidney Int, 2003).

Experiments:
[1] = molecular target: T1, Solute carrier family 22 member 6 (Homo sapiens, UniProt Q4U2R8); assay: TP_TRANSPORTER: inhibition of Urate uptake (Urate: 300 uM, alpha-KG: 2000 uM) in OAT1-expressing S2 cells; format: functional, cell-based; parameters: scale not given: the % may be the effect or the level left; conditions: s2, 2000 µM
T1 sequence (Q4U2R8 whole entry): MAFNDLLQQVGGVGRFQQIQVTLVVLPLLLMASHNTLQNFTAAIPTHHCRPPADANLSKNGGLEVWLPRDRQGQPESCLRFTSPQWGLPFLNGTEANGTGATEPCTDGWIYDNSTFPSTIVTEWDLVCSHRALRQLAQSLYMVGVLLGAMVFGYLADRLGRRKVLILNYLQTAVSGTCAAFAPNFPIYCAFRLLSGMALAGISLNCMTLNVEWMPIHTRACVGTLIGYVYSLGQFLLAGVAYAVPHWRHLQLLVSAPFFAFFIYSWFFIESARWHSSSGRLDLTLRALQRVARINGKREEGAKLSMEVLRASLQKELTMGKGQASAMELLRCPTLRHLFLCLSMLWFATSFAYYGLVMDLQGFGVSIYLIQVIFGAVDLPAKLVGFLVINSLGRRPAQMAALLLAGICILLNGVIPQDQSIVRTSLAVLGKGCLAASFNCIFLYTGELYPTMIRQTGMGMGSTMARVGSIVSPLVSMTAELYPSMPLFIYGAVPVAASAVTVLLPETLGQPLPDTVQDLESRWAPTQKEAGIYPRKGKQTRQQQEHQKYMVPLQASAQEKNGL

[2] = substrate: O=c1[nH]c(=O)c2[nH]c(=O)[nH]c2[nH]1; assay: TP_TRANSPORTER: uptake in OAT1-expressing S2 cells; format: functional, cell-based

`O=C(O)CCC(=O)C(=O)O` [ALPHA-KETOGLUTARIC ACID] showed an Activity [1] of 12.4%.

B1: Solute carrier family 22 member 6 (Homo sapiens) (protein)
chain: T1 sequence (Q4U2R8 whole entry)
For B1, the Km [2] was 947 µM.
